# Assay results reported in article PMC3070735, “Uremic Toxins Inhibit Transport by Breast Cancer Resistance Protein and Multidrug Resistance Protein 4 at Clinically Relevant Concentrations” (PLoS ONE, 2011).
# Counter-ions that a name gives are not always drawn.
# Key:
# MRP4 = biological target: T1, MRP4 (Homo sapiens, UniProt O15439); experiment: Membrane vesicle transport inhibition assay: MRP4-mediated [3H]-MTX uptake
# T1 sequence (O15439 1-1325): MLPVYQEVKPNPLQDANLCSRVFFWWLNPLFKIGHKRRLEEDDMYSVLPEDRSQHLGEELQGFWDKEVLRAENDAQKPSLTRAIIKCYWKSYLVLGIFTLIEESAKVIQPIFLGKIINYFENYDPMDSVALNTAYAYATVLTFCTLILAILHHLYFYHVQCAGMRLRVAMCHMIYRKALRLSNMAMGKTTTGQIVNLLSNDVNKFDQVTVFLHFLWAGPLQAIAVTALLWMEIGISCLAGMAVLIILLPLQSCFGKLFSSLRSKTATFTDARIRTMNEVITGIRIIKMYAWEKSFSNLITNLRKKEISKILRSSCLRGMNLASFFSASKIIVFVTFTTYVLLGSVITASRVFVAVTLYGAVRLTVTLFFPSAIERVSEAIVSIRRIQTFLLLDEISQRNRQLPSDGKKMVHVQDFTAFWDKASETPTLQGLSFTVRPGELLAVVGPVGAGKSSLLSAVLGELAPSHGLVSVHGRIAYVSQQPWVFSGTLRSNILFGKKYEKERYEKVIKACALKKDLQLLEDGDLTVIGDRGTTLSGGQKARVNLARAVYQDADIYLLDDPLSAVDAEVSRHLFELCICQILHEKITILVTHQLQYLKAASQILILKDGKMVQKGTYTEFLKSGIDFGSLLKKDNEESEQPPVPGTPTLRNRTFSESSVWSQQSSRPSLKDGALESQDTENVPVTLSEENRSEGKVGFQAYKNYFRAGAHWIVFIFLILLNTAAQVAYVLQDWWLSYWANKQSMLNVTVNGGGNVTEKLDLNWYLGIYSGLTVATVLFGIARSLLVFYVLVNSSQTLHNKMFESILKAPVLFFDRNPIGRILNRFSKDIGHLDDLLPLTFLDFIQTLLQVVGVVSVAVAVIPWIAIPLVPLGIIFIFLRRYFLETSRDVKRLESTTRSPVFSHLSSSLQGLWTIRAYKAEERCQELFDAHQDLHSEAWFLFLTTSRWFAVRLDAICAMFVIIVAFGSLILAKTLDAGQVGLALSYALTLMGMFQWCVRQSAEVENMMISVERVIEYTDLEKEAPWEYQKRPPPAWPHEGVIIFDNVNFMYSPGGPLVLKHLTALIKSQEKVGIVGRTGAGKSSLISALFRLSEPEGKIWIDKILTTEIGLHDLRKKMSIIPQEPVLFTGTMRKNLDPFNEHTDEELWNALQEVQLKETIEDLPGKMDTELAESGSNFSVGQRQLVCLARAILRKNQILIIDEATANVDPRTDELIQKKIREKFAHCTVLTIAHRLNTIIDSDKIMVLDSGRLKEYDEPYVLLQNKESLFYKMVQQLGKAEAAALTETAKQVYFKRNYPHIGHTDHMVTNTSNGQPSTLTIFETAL
# Experimental: (§1) Human embryonic kidney (HEK293; purchased at American Type Culture Collection, Manassas, VA) cells were cultured in Dulbecco's modified Eagle's medium (Invitrogen life sciences, Breda, the Netherlands) containing 10% (v/v) fetal calf serum (MP Biomedicals, Uden, the Netherlands) at 37°C in a 5% (v/v) CO2 atmosphere. To functionally overexpress MRP4 and BCRP, HEK293 cells were transduced with baculoviruses of human MRP4, BCRP or enhanced yellow fluorescent protein (EYFP), generated via the Bac-to-Bac system (Invitrogen) as previously described. To transduce HEK293 cells, they were cultured in 500 cm^2 flasks until 70% confluence. Subsequently, medium was removed and 10 ml of virus and 25 ml of medium were added and incubated for 30 min at 37°C. Next, 50 ml of medium was added and after 2 h of transduction 5 mM sodium butyrate was added.
# Three days after transduction, cells were harvested and pelleted by centrifugation (30 min at 4,000 x g). Afterwards, the cells were resuspended in ice-cold hypotonic TS buffer (0.5 mM sodium phosphate, 0.1 mM EDTA, pH 7.0) containing protease inhibitors (100 µM phenylmethylsulfonyl fluoride, 5 µg/ml aprotinin, 5 µg/ml leupeptin, 1 µg/ml pepstatin and 1 µg/ml E-64) and shaken for 30 min at 4°C. Cells were then centrifuged at 100,000 x g for 30 min at 4°C. […] Afterwards, supernatant was centrifuged at 100,000 x g for 1 h at 4°C. […] The protein content of samples was determined using the Bio-Rad protein assay (Veenendaal, the Netherlands), according to manufacturers recommendations. Vesicles were frozen in liquid nitrogen and stored at −80°C until use. The orientation of the membrane vesicles was not determined, since ATP-dependent uptake occurs only in inside-out vesicles.
# (§2) A rapid filtration technique was used to study the uptake of [^3H]-MTX and [^3H]-E1S into MRP4 or BCRP membrane vesicles, as previously described. In short, 25 µl of TS buffer containing 4 mM ATP, 10 mM MgCl2 and radiolabeled substrate was added to 5 µl of the membrane vesicles (1.5 mg/ml). The transport assay was performed in the absence or presence of various concentrations of uremic toxins to evaluate the inhibitory effects of these compounds on MRP4-mediated [^3H]-MTX uptake and BCRP-mediated [^3H]-E1S uptake. […] Uptake was stopped by placing the samples on ice and the addition of 150 µl ice cold TS buffer. Subsequently, the samples were transferred to a 96 well filter plate (Millipore, Etten-leur, the Netherlands) pre-incubated with TS buffer and filtered using a Multiscreen HTS-Vacuum Manifold filtration device (Millipore). Afterwards, 2 ml of scintillation liquid was added to each filter and radioactivity was determined using liquid scintillation counting. As negative controls ATP was substituted for AMP and EYFP-membrane vesicles were used. Each experiment was performed in triplicates.
# (§3) Differences between groups were considered to be statistically significant when p<0.05. The mean IC50 and IC20 values were calculated from the inhibition curves used for the Dixon analysis and to determine the inhibition constant (Ki) from the Dixon plots. Transport inhibition studies were performed in triplicate and repeated at least three times.
# BCRP = biological target: T2, BCRP (Homo sapiens, UniProt Q9UNQ0); experiment: Membrane vesicle transport inhibition assay: BCRP-mediated [3H]-E1S uptake
# T2 sequence (Q9UNQ0 1-655): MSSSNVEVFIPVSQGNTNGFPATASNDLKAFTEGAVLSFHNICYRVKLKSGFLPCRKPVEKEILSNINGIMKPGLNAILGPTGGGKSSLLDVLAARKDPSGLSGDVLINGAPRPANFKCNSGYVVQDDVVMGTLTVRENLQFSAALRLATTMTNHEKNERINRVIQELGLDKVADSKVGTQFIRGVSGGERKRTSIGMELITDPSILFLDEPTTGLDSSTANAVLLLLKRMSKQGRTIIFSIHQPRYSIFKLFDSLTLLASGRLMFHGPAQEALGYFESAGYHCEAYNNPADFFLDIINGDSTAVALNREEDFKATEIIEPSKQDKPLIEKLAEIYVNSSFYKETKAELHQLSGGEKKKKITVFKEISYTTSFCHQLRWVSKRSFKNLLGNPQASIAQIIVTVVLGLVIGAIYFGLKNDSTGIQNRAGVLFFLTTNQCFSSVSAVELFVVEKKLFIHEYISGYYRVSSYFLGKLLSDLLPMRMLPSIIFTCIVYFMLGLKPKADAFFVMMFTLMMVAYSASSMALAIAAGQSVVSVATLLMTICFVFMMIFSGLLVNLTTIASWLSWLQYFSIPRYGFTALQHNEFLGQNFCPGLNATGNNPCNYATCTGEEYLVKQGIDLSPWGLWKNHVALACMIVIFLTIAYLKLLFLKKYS
# Experimental: as §1
# Three days after transduction, cells were harvested and pelleted by centrifugation (30 min at 4,000 x g). Afterwards, the cells were resuspended in ice-cold hypotonic TS buffer (0.5 mM sodium phosphate, 0.1 mM EDTA, pH 7.0) containing protease inhibitors (100 µM phenylmethylsulfonyl fluoride, 5 µg/ml aprotinin, 5 µg/ml leupeptin, 1 µg/ml pepstatin and 1 µg/ml E-64) and shaken for 30 min at 4°C. Cells were then centrifuged at 100,000 x g for 30 min at 4°C. Subsequently, pellet was resuspended in ice-cold isotonic buffer (10 mM Tris-HEPES and 250 mM sucrose, pH 7.4, adjusted with HEPES) supplemented with protease inhibitors and homogenized using a tight fitting Dounce homogenizer followed by centrifugation (1,000 x g, 20 min, 4°C). Afterwards, supernatant was centrifuged at 100,000 x g for 1 h at 4°C. The resulting pellet was resuspended in isotonic buffer and passed through a 27-gauge needle 25 times to obtain crude membrane vesicles. The protein content of samples was determined using the Bio-Rad protein assay (Veenendaal, the Netherlands), according to manufacturers recommendations. Vesicles were frozen in liquid nitrogen and stored at −80°C until use. The orientation of the membrane vesicles was not determined, since ATP-dependent uptake occurs only in inside-out vesicles.
# as §2
# as §3, with “Statistics were performed using GraphPad Prism 5.02 via an unpaired t test or a Kruskal-Wallis test followed by a Dunn's Multiple Comparison test. Differences” for “Differences”
# [1] = design: method as in PMID 8832487, PMID 10052856; conditions: isolated perfused rat kidney, secretory transport; cited from earlier work
structure (smiles),measurement,setting,value
"CN(Cc1cnc2nc(N)nc(N)c2n1)c1ccc(C(=O)N[C@@H](CCC(=O)O)C(=O)O)cc1 [[^3H]-MTX, [3′,5′,7′-^3H(n)]-methotrexate disodium salt, reference compound]",ATP-dependent uptake compared to EYFP vesicles,MRP4; MRP4-overexpressing vesicles vs EYFP vesicles,11 fold
same,"ATP-dependent uptake, average rate","MRP4; MRP4-overexpressing vesicles, no inhibitor",1.3 pmol/mg/min
"N.[3H]C1c2cc(OS(=O)(=O)O)ccc2[C@H]2CC[C@]3(C)C(=O)CC[C@H]3[C@@H]2C1[3H] (stereo partly drawn) [[^3H]-E1S, [6′,7′-^3H(n)]-estrone-sulfate ammonium salt, reference compound]",ATP-dependent uptake compared to EYFP controls,BCRP; BCRP-overexpressing vesicles vs EYFP controls,24 fold
same,"ATP-dependent uptake, average rate","BCRP; BCRP-overexpressing vesicles, no inhibitor",15.5 pmol/mg/min
Cc1ccccc1C(=O)NCC(=O)O [2-methyl hippuric acid],Level in kidney tissue compared to the perfusate,[1],175 times
Cc1ccc(C(=O)NCC(=O)O)cc1 [4-methyl hippuric acid],Level in kidney tissue compared to the perfusate,[1],600 times
